The subject of data set [1] is IP3R-mediated Ca2+ release in permeabilized MEF cells. Kind of data set: Unidirectional 45Ca2+-flux assay, IP3-induced Ca2+ release (IICR). Type of data set: cell-based, mouse. Particulars: result in words; for effect on IP3R-mediated Ca2+ release at 50 µM peptide: 3 µM IP3, 50 µM peptide. The protocol: ^45Ca^2+-unidirectional flux experiments were performed as previously described. Twelve-well clusters containing MEF cells were fixed on a thermostated plate at 30 °C on a mechanical shaker. The culture medium was aspirated, and the cells were permeabilized by incubating them for 10 min in a solution containing 120 mM KCl, 30 mM imidazole-HCl (pH 6.8), 2 mM MgCl2, 1 mM ATP, 1 mM EGTA and 20 µg/ml saponin. The non-mitochondrial Ca^2+ stores were then loaded for 45 min in 120 mM KCl, 30 mM imidazole-HCl (pH 6.8), 5 mM MgCl2, 5 mM ATP, 0.44 mM EGTA, 10 mM NaN3 to prevent mitochondrial Ca^2+ uptake, and 150 nM free ^45Ca^2+ (28 µCi/ml). Then, 1 ml of efflux medium containing 120 mM KCl, 30 mM imidazole-HCl (pH 6.8) and 1 mM EGTA was added and replaced every 2 min. IP3 (3 µM) was added for 2 min after 10 min of efflux. At the end of the experiment, all ^45Ca^2+ remaining in the stores was released by incubation with 1 ml of a 2% (w/v) sodium dodecyl sulfate solution for 30 min. Ca^2+ release was plotted as fractional loss (% / 2 min) as a function of time as previously described. The effect of the BH4-domain peptides on IICR was tested by pre-incubating the peptides for 4 min before exposing the stores to IP3.

The nature of data set [2]: CD spectroscopy, α-helical content (CONTIN/LL deconvolution). It counts as physicochemical. Particulars: 50 µM peptide in 97.5% TFE / 2.5% methanol, 25 °C, 190-260 nm, ten scans, CDPro CONTIN/LL. The protocol:
CD spectra (Jasco J-810 circular dichroism spectropolarimeter, USA) were recorded at 1 nm intervals over the 190-260 nm wavelength range using 1 mm path length quartz cells (Hellma, Germany). Ten scans were performed. The experiments were run at 20 nm/min and the temperature was fixed at 298^° K (25 °C). The secondary structure of the peptide (50 µM) was determined in 97.5% 2,2,2-trifluoroethanol (TFE) and 2.5% methanol. The ellipticity is calculated per mole of amino-acid residue. To estimate the secondary structure of the peptide in terms of α-helical content, an analysis of the relevant CD spectra was carried out using the CDPro software (http://lamar.colostate.edu/~sreeram/CDPro/main.html) developed by Woody and coworkers. The basis set 10 of the CDPro software was used. The analysis was performed using the CONTIN/LL [31], a self-consistent method with an incorporated variable selection.

The target in data set [3] is GST-Dom3 IP3R1 (GST fused to IP3R1 Domain 3, aa 923-1581) (mouse, UniProt P11881 923-1581). The data set can be described thus: cell-based or functional assay.
Chain of GST-Dom3 IP3R1 (GST fused to IP3R1 Domain 3, aa 923-1581) (P11881 923-1581): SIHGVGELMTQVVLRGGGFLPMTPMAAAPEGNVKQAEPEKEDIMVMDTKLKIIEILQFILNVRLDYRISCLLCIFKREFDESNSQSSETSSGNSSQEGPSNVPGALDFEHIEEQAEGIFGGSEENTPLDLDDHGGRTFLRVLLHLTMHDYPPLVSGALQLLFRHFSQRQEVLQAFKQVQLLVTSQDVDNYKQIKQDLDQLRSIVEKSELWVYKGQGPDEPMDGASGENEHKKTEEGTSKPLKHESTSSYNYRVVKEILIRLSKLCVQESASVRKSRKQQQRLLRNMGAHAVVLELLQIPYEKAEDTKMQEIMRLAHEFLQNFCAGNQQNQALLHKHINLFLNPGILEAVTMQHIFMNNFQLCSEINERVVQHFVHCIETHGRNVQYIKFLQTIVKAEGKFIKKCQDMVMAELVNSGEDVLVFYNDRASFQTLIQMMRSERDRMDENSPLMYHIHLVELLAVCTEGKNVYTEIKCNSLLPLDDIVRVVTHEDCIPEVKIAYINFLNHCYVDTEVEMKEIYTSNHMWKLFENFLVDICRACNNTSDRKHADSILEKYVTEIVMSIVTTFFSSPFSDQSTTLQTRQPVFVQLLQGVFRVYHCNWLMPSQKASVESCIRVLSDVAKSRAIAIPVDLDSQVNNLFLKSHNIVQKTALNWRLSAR

For the molecule “RTGYDNREIGMKYGHYKGSQRGYEW [Bcl-2-BH4 VIL/GGG, Bcl-2-BH4 peptide with glycines at positions V15/I19/L23]”, the “effect on IP3R-mediated Ca2+ release at 50 µM peptide” value in data set [1] is listed as “lost their ability to inhibit IP3R-mediated Ca^2+ release”. The same molecule registered a α-helical content in data set [2] of 17.7%.

“WYEKQRSLHGIMYYVIEDRNTKGYR [Bcl-2-BH4 SCR, scrambled version of the Bcl-2-BH4 peptide, reference compound]”: the “effect on IICR, concentration-response” value in data set [1] (3 µM IP3, peptide 0.1-100 µM, 3 independent experiments) is “neither Bcl-2-BH4 IV/GG (Figure 3A-B) nor the scrambled version of the Bcl-2-BH4 peptide (Bcl-2-BH4 SCR) (Figure 3B) significantly affect IICR”. As to “RTGYDNREGVMKYGHYKLSQRGYEW [Bcl-2-BH4 II/GG, Bcl-2-BH4 peptide with glycines at positions I14/I19]”, the “effect on IP3R-mediated Ca2+ release at 50 µM peptide” value in data set [1] was “lost their ability to inhibit IP3R-mediated Ca^2+ release”. The α-helical content in data set [2] is 32%. Turning to RTGYDNREIVMKYIHYKLSQRGYEW [Bcl-2-BH4 peptide], the “IC50 of inhibition of IP3-induced Ca2+ release (IICR), unidirectional 45Ca2+ flux in permeabilized MEF cells, 3 µM IP3, peptide 0.1-100 µM” value in data set [3] was ~30 µM.

(Values after publication PMC3795776, “Alpha-Helical Destabilization of the Bcl-2-BH4-Domain Peptide Abolishes Its Ability to Inhibit the IP3 Receptor” (PLoS ONE, 2013).)
